Source: patent publication US7498343B2, “Mycobacterial inhibitors” (priority 2002, dated 2009)
Values after ≈ are worked out from the molar mass of the structure shown. Read-outs that look alike come from different tables or passages of the source.

Assays:
[1] = tested on: Mycobacterium tuberculosis (strain H37RV); experiment: In-vitro method for testing compounds against M. tuberculosis (resazurin growth inhibition, MIC); format: cell-based; conditions: MIC data representing IC90's, 7 days incubation, resazurin fluorescence
M. Smegmatis ATCC607 = experiment: In-vitro method for testing compounds for anti-bacterial activity against strain M. smegmatis ATCC607 (Alamar Blue growth inhibition); format: cell-based; conditions: M. smegmatis ATCC607, pIC50 = -logIC50, IC50 in M, 50% inhibitory concentration for bacterial growth, 48 hours incubation
Procedure, shortened: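 About 250 CFU/well M. smegmatis ATCC607 in Mueller-Hinton broth exposed to five-fold serial compound dilutions, 48 h at 37 °C, humidified 5% CO2. Growth read by Alamar Blue fluorescence (ex 530/em 590 nm) after 2 h further incubation; % growth inhibition calculated.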

[2] = Mycobacterium tuberculosis, H37RV, 168 h, read-out: MIC

| Structure (SMILES) | MIC [1] [microgram/ml] | pIC50 (M. Smegmatis ATCC607) | MIC [1, 2] [µg/mL] | IC50 (M. Smegmatis ATCC607; Mycolicibacterium smegmatis, ATCC607, 48 h, read-out: pIC50 (converted)) [nM] |
| --- | --- | --- | --- | --- |
| COc1nc2cc(C)c(Br)cc2cc1C(c1ccccc1)C(O)(CCN(C)C)c1cccc(F)c1 (single isomer, unassigned) [Compound 215] | 8.52 | 6.2 |  |  |
| COc1nc2ccc(Br)cc2cc1C(c1ccccc1)C(O)(CCN1CCCCC1)c1ccccc1 (stereo not drawn) [Compound 48] | 8.65 | 5.8 |  |  |
| CCN(C)CCC(O)(c1ccc2ccccc2c1)C(c1ccccc1)c1cc2cc(Br)ccc2nc1OC (stereo not drawn) [Compound 142] | 9.03 | 6.2 |  |  |
| COc1ccc2nc(OC)c(C(c3ccccc3)C(O)(CCN(C)C)c3cccc(F)c3)cc2c1 (single isomer, unassigned) [Compound 134] | 7.52 | 6.5 |  |  |
| COc1nc2ccc(Br)cc2cc1C(c1ccccc1)C(O)(CCN(C)C)c1cc(F)cc(F)c1 (stereo not drawn) [Compound 118] | 0.01 | 9.1 |  |  |
| COc1nc2ccc(Br)cc2cc1C(c1ccc(Cl)cc1)C(O)(CCN(C)C)c1cccc2ccccc12 (racemic) [Compound 74] | 59.00 | 6.5 |  |  |
| COc1nc2ccc(Br)cc2cc1C(c1ccccc1)C(O)(CCN1CCCC1)c1ccc2ccccc2c1 (stereo not drawn) [Compound 171] | 46.19 | 4.3 |  |  |
| COc1nc2ccc(Br)cc2cc1C(c1ccc(Cl)cc1)C(O)(CCN(C)C)c1cccc2ccccc12 (racemic) [Compound 73] | 23.49 | 8.0 |  |  |
| COc1nc2ccc(Br)cc2cc1C(c1ccccc1)C(O)(CCN(C)C)c1ccc(C#N)cc1 (racemic) [Compound 81] | 42.14 | 5.4 |  |  |
| COc1nc2ccc(Br)cc2cc1C(c1ccccc1)C(O)(CCN(C)C)C1CCN(C(=O)c2ccccc2)CC1 (single isomer, unassigned) [Compound 201] | 9.77 | 5.7 |  |  |
| COc1nc2ccccc2cc1C(c1ccccc1)C(O)(CCN(C)C)c1cccc(F)c1 (racemic) [Compound 93] | 35.31 | 4.8 |  |  |
| COc1nc2ccc(Br)cc2cc1C(c1ccccc1)C(O)(CCN(C)C)c1cc(Br)cc2ccccc12 (single isomer, unassigned) [Compound 143] | 50.39 | 6.9 |  |  |
| COc1nc2ccc(Br)cc2cc1C(c1ccccc1)C(O)(CCCN1CCOCC1)c1cccc2ccccc12 (single isomer, unassigned) [Compound 211] | 61.16 | 4.1 |  |  |
| COc1nc2cc(C)c(Br)cc2cc1C(c1ccccc1)C(O)(CCN(C)C)c1cc(F)cc(F)c1 (single isomer, unassigned) [Compound 228] | 8.80 | 5.1 |  |  |
| COc1nc2ccc(Br)cc2cc1C(c1ccccc1)C(O)(CCCN(C)C)c1ccc2ccccc2c1 (single isomer, unassigned) [Compound 126] | 56.96 | 5.2 |  |  |
| COc1nc2ccc(F)cc2cc1C(c1ccccc1)C(O)(CCN(C)C)c1ccccc1 (single isomer, unassigned) [Compound 29] | 44.46 | 5.9 |  |  |
| COc1nc2ccccc2cc1C(c1ccccc1)C(O)(CCN(C)C)c1cccc2ccccc12 (racemic) [Compound 92] | 7.55 | 6.5 |  |  |
| COc1nc2ccc(Br)cc2cc1C(c1ccccc1)C(O)(CCN(C)C)c1cccc(F)c1 (stereo not drawn) [Compound 109] | 0.33 | 8.2 |  |  |

| Structure (SMILES) | MIC [1] [microgram/ml] | pIC50 (M. Smegmatis ATCC607) | MIC [1, 2] [µg/mL] | IC50 (M. Smegmatis ATCC607; Mycolicibacterium smegmatis, ATCC607, 48 h, read-out: pIC50 (converted)) [nM] |
| --- | --- | --- | --- | --- |
| COc1nc2cc(C)c(Br)cc2cc1C(c1ccccc1)C(O)(CCN(C)C)c1cccc2ccccc12 (single isomer, unassigned) [Compound 226] | 9.03 | 5.5 |  |  |
| COCCOc1nc2ccc(Br)cc2cc1C(c1ccccc1)C(O)(CCN(C)C)c1cccc(F)c1 (single isomer, unassigned) [Compound 165] | 2.26 | 6.6 |  |  |
| COc1nc2ccccc2cc1C(c1ccccc1)C(O)(CCN(C)C)c1cccc(F)c1 (racemic) [Compound 94] | 1.77 | 7.9 |  |  |
| COc1nc2ccc(Br)cc2cc1C(c1ccccc1)C(O)(CCN1CCN(C)CC1)c1cc(Br)cc2ccccc12 (single isomer, unassigned) [Compound 152] | 10.93 | 5.8 |  |  |
| COc1nc2ccc(Br)cc2cc1C(c1ccccc1)C(O)(CCN(C)C)c1ccc2ccccc2c1 (racemic) [Compound 45] | 1.76 | 8.0 |  |  |
| COc1nc2ccc(Br)cc2cc1C(c1ccccc1)C(O)(CCN(C)C)c1ccc2c(c1)OCO2 (racemic) [Compound 75] | 1.74 | 7.9 |  |  |
| COc1nc2ccc(-c3ccccc3)cc2cc1C(c1ccccc1)C(O)(CCN(C)C)c1ccccc1 (single isomer, unassigned) [Compound 27] | 7.97 | 5.9 |  |  |
| COc1nc2ccc(Br)cc2cc1C(c1ccccc1)C(O)(CCCN(C)C)c1ccccc1 (single isomer, unassigned) [Compound 64] | 6.54 | 5.8 |  |  |
| CN(C)CCC(O)(c1ccccc1)C(c1ccccc1)c1cc2cc(Br)ccc2n(C)c1=O (single isomer, unassigned) [Compound 106] | 55.55 | 6.2 |  |  |
| COc1nc2ccc(Br)cc2cc1C(c1ccccc1)C(O)(CCN(C)C)c1cccnc1 (racemic) [Compound 86] | 16.02 | 6.9 |  |  |
| COc1nc2ccc(Br)cc2cc1C(c1ccccc1)C(O)(CCN(C)C)c1cc(F)cc(F)c1 (stereo not drawn) [Compound 117] | 1.71 | 6.7 |  |  |
| COc1nc2ccc(Br)cc2cc1C(c1ccccc1)C(O)(CCn1ccnc1)c1ccccc1 (stereo not drawn) [Compound 49] |  | 5.4 | 52.9 (≈ 100 µM) |  |
| COc1nc2ccc(Br)cc2cc1C(c1ccccc1)C(O)(CCn1cncn1)c1cccc2ccccc12 (stereo not drawn) [Compound 172] |  |  | 7.3 (≈ 12.6 µM) | 2000 |
| COc1nc2ccc(Br)cc2cc1C(c1ccccc1)C(O)(CCN1CCN(C)CC1)c1cccc2ccccc12 (single isomer, unassigned) [Compound 149] | 48.50 | 5.1 |  |  |
| COc1nc2ccc(Br)cc2cc1C(c1ccccc1)C(O)(CCn1ccnc1)c1cccc2ccccc12 (single isomer, unassigned) [Compound 173] | 57.85 | 4.7 |  |  |
| COc1nc2ccc(Br)cc2cc1C(c1ccccc1)C(O)(CCN(C)C)c1ccc2c(Br)cccc2c1 (single isomer, unassigned) [Compound 127] | 25.26 | 6.9 |  |  |
| COc1nc2ccc(Br)cc2cc1C(c1ccccc1)C(O)(CCN1CCCC1)c1ccc2cc(Br)ccc2c1 (single isomer, unassigned) [Compound 157] | 52.46 | 5.6 |  |  |
| COc1nc2ccc(Br)cc2cc1C(c1ccccc1)C(O)(CN(C)C)c1ccccc1 (single isomer, unassigned) [Compound 61] | 39.04 | 4.5 |  |  |
